Several values for one entry are separate records, joined by “and”; a condition that tells them apart may be missing. Identical values can stand only once. Inconclusive results are not listed.
System: BDF1 mice, s.c. Lewis lung carcinoma, T/C %
Test: NCI In Vivo Anticancer Drug Screen. Data for tumor model Lewis Lung Carcinoma (subcutaneous) in B6D2F1 (BDF1) mice
How it was run: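 Transplanted tumors grown in mice; compound vs vehicle dosing; endpoint survival or tumor size; ratio T/C.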

C[C@]12C=CC(=O)C=C1CC[C@@H]1[C@@H]2[C@@H](O)C[C@@]2(C)[C@H]1CC[C@]2(O)C(=O)CO
T/C (endpoint: mean tumor weight, dose: 12.5 mg/kg/injection, schedule: Q01DX011 (sc), vehicle: steriod suspending solution, higher = larger tumour): 81 % of control
T/C (endpoint: mean tumor weight, dose: 25.0 mg/kg/injection, schedule: Q01DX011 (sc), vehicle: steriod suspending solution, higher = larger tumour): 72 % of control
T/C (endpoint: mean tumor weight, dose: 50.0 mg/kg/injection, schedule: Q01DX011 (sc), vehicle: steriod suspending solution, higher = larger tumour): 51 % of control
T/C (endpoint: mean tumor weight, dose: 100.0 mg/kg/injection, schedule: Q01DX011 (sc), vehicle: steriod suspending solution, higher = larger tumour): 14 % of control
T/C (endpoint: median survival time, dose: 40.0 mg/kg/injection, schedule: Q02DX009 (ip), vehicle: Klucel (hydroxypropylcellulose) (HPC), higher = longer survival): 99 % of control
T/C (endpoint: median survival time, dose: 80.0 mg/kg/injection, schedule: Q02DX009 (ip), vehicle: Klucel (hydroxypropylcellulose) (HPC), higher = longer survival): 93 % of control
T/C (endpoint: median survival time, dose: 320.0 mg/kg/injection, schedule: Q02DX009 (ip), vehicle: Klucel (hydroxypropylcellulose) (HPC), higher = longer survival): 86 % of control

CCCCOP(=S)(N1CC1)N1CC1
T/C (endpoint: mean tumor weight, dose: 2.5 mg/kg/injection, schedule: Q01DX011 (ip), vehicle: saline, higher = larger tumour): 79 % of control
T/C (endpoint: mean tumor weight, dose: 5.0 mg/kg/injection, schedule: Q01DX011 (ip), vehicle: saline, higher = larger tumour): 52 % of control
T/C (endpoint: mean tumor weight, dose: 10.0 mg/kg/injection, schedule: Q01DX011 (ip), vehicle: saline, higher = larger tumour): 23 % of control

O
T/C (endpoint: median survival time, dose: 100.0 mg/kg/injection, schedule: Q02DX009 (ip), vehicle: saline, higher = longer survival): 91 % of control
T/C (endpoint: median survival time, dose: 200.0 mg/kg/injection, schedule: Q02DX009 (ip), vehicle: saline, higher = longer survival): 110 % of control
T/C (endpoint: median survival time, dose: 600.0 mg/kg/injection, schedule: Q02DX009 (ip), vehicle: saline, higher = longer survival): 94 % of control

CC(=O)Nc1c(Cl)cc2c(c1Cl)Cc1cc([N+](=O)[O-])ccc1-2
T/C (endpoint: mean tumor weight, dose: 20.0 mg/kg/injection, schedule: Q01DX011 (ip), vehicle: carboxymethylcellulose (CMC), higher = larger tumour): 55 % of control
T/C (endpoint: mean tumor weight, dose: 40.0 mg/kg/injection, schedule: Q01DX011 (ip), vehicle: carboxymethylcellulose (CMC), higher = larger tumour): 32 % of control

COc1ccc(Nc2ccnc3cc(Cl)ccc23)cc1CN(CCCl)CCCl
T/C (endpoint: mean tumor weight, dose: 0.06 mg/kg/injection, schedule: Q01DX011 (ip), vehicle: other, higher = larger tumour): 113 % of control
T/C (endpoint: mean tumor weight, dose: 0.12 mg/kg/injection, schedule: Q01DX011 (ip), vehicle: other, higher = larger tumour): 94 % of control
T/C (endpoint: mean tumor weight, dose: 0.25 mg/kg/injection, schedule: Q01DX011 (ip), vehicle: other, higher = larger tumour): 85 % of control
T/C (endpoint: mean tumor weight, dose: 0.5 mg/kg/injection, schedule: Q01DX011 (ip), vehicle: other, higher = larger tumour): 26 % of control and 44 % of control
T/C (endpoint: mean tumor weight, dose: 1.0 mg/kg/injection, schedule: Q01DX011 (ip), vehicle: other, higher = larger tumour): 32 % of control

C[n+]1cccc(C(=O)O)c1
T/C (endpoint: mean tumor weight, dose: 50.0 mg/kg/injection, schedule: Q01DX011 (ip), vehicle: saline, higher = larger tumour): 116 % of control
T/C (endpoint: mean tumor weight, dose: 100.0 mg/kg/injection, schedule: Q01DX011 (ip), vehicle: saline, higher = larger tumour): 75 % of control
T/C (endpoint: mean tumor weight, dose: 200.0 mg/kg/injection, schedule: Q01DX011 (ip), vehicle: saline, higher = larger tumour): 60 % of control

NC(=S)N/N=C\c1ncnc2ccccc12
T/C (endpoint: median survival time, dose: 1.6 mg/kg/injection, schedule: Q01DX009 (ip), vehicle: Klucel (hydroxypropylcellulose) (HPC), higher = longer survival): 104 % of control
T/C (endpoint: median survival time, dose: 3.12 mg/kg/injection, schedule: Q01DX009 (ip), vehicle: Klucel (hydroxypropylcellulose) (HPC), higher = longer survival): 103 % of control
T/C (endpoint: median survival time, dose: 6.25 mg/kg/injection, schedule: Q01DX009 (ip), vehicle: Klucel (hydroxypropylcellulose) (HPC), higher = longer survival): 96 % of control and 108 % of control

C=C(C)C1CC=C(C)CC1 (stereo not drawn)
T/C (endpoint: mean tumor weight, dose: 100.0 mg/kg/injection, schedule: Q01DX011 (ip), vehicle: carboxymethylcellulose (CMC), higher = larger tumour): 65 % of control
T/C (endpoint: mean tumor weight, dose: 200.0 mg/kg/injection, schedule: Q01DX011 (ip), vehicle: carboxymethylcellulose (CMC), higher = larger tumour): 43 % of control
